Measurements reported in patent US11331299B2, “Medicinal use of serrulatane diterpenes” (The University of Sydney, priority 2016, dated 2022).
Like-named read-outs stand apart in the source and are kept apart here.

System: 280 human cancer cell lines
Assay: OncoPanel cell proliferation assay (10-day)
Format: cell-based
Conditions: Homo sapiens; for IC50: read-out: Cell Count IC50; for EC50: read-out: Cell Count EC50; for GI50: read-out: Cell Count GI50
[1] = SJRH30, SJRH30, Soft Tissue - Sarcoma
[2] = SJSA-1, SJSA1, Soft Tissue - Osteosarcoma
[3] = SK-LMS-1, SK-LMS-1, Soft Tissue - Sarcoma
[4] = SK-MEL3, SK-MEL-3, Skin (Melanoma)
[5] = SK-MEL-1, SK-MEL-1, Skin (Melanoma)
[6] = SK-MEL-28, SK-MEL-28, Skin (Melanoma)
[7] = SK-OV-3, SKOV3, Female GU - Ovary
[8] = SK-UT-1, SK-UT-1, Soft Tissue - Sarcoma
[9] = SW579, SW579, Endocrine - Thyroid
[10] = SW684, SW684, Soft Tissue - Sarcoma

`CC(C)=CCC[C@@H]1C(O)Oc2c(C)cc(O)c3c2[C@H]1CC[C@H]3C` (some centres unmarked) [Compound 2, 5,18-epoxyserrulat-14-en-8,18-diol] gave an IC50 (SCaBER, Bladder) of 11.5 µM, an EC50 (SH-4, Skin (Melanoma)) of 9.6 µM and a GI50 (SH-4, Skin (Melanoma)) of 11.8 µM. It also gave an IC50 (SH-4, Skin (Melanoma)) of 11.9 µM, an EC50 (SHP77, SHP-77, Lung - SCLC) of 8.01 µM and a GI50 (SHP77, SHP-77, Lung - SCLC) of 7.9 µM. For the same compound, the IC50 (SHP77, SHP-77, Lung - SCLC) was 8.01 µM, the EC50 [1] was 5.09 µM and the GI50 [1] was 5.07 µM. For the same compound, the IC50 [1] was 5.1 µM, the EC50 [2] was 7.11 µM and the GI50 [2] was 7.02 µM. For the same compound, the IC50 [2] was 7.11 µM, the EC50 (SK-BR-3, SK-BR-3, Breast) was 12.2 µM and the GI50 (SK-BR-3, SK-BR-3, Breast) was 11.9 µM. It also gave an IC50 (SK-BR-3, SK-BR-3, Breast) of 12.2 µM, an EC50 [3] of 6.79 µM and a GI50 [3] of 11.2 µM. The IC50 [3] was 11.3 µM, the EC50 [4] was 22 µM and the GI50 [4] was 20.8 µM. The EC50 [5] was 15.7 µM, the GI50 [5] was 14.7 µM and the IC50 [5] was 15.7 µM. The EC50 [6] was 9.46 µM, the GI50 [6] was 9.85 µM and the IC50 [6] was 9.89 µM. The EC50 (SK-MES-1, SKMES1, Lung - NSCLC) was 7.8 µM, the GI50 (SK-MES-1, SKMES1, Lung - NSCLC) was 7.67 µM and the IC50 (SK-MES-1, SKMES1, Lung - NSCLC) was 7.8 µM. For the same compound, the EC50 (SK-N-AS, CNS - Neuroblastoma) was 6.23 µM, the GI50 (SK-N-AS, CNS - Neuroblastoma) was 7.7 µM and the IC50 (SK-N-AS, CNS - Neuroblastoma) was 7.92 µM. The EC50 (SK-N-DZ, CNS - Neuroblastoma) was greater than 30 µM, the GI50 (SK-N-DZ, CNS - Neuroblastoma) was greater than 30 µM and the IC50 (SK-N-DZ, CNS - Neuroblastoma) was greater than 30 µM. It also gave an EC50 (SK-N-FI, CNS - Neuroblastoma) greater than 30 µM, a GI50 (SK-N-FI, CNS - Neuroblastoma) greater than 30 µM and an IC50 (SK-N-FI, CNS - Neuroblastoma) greater than 30 µM. For the same compound, the EC50 [7] was 15.4 µM, the GI50 [7] was 15.2 µM and the IC50 [7] was 15.4 µM. For the same compound, the EC50 (SK-PN-DW, Stomach) was 10.8 µM, the GI50 (SK-PN-DW, Stomach) was 10.9 µM and the IC50 (SK-PN-DW, Stomach) was 10.9 µM. It also gave an EC50 [8] of 11.7 µM, a GI50 [8] of 11.6 µM and an IC50 [8] of 11.7 µM. It also gave an EC50 (SKO-007, SKO-007, Myeloma) of 1.59 µM, a GI50 (SKO-007, SKO-007, Myeloma) of 1.42 µM and an IC50 (SKO-007, SKO-007, Myeloma) of 1.59 µM. For the same compound, the EC50 (SNB-19, SNB-19, CNS - Glioma) was 17.3 µM, the GI50 (SNB-19, SNB-19, CNS - Glioma) was 16.8 µM and the IC50 (SNB-19, SNB-19, CNS - Glioma) was 17.3 µM. It also gave an EC50 (SNU1, SNU-1, Stomach) of 8.51 µM, a GI50 (SNU1, SNU-1, Stomach) of 9.41 µM and an IC50 (SNU1, SNU-1, Stomach) of 9.42 µM. For the same compound, the EC50 (SNU-5, SNU-5, Stomach) was greater than 30 µM, the GI50 (SNU-5, SNU-5, Stomach) was greater than 30 µM and the IC50 (SNU-5, SNU-5, Stomach) was greater than 30 µM. It also gave an EC50 (SNU-16, SNU-16, Stomach) of 9.96 µM, a GI50 (SNU-16, SNU-16, Stomach) of 9.91 µM and an IC50 (SNU-16, SNU-16, Stomach) of 9.96 µM. It also gave an EC50 (SNU-423, SNU-423, Liver) of 5.29 µM, a GI50 (SNU-423, SNU-423, Liver) of 5.26 µM and an IC50 (SNU-423, SNU-423, Liver) of 5.31 µM. It also gave an EC50 (SR, Lymphoma) of 10.7 µM, a GI50 (SR, Lymphoma) of 10.7 µM and an IC50 (SR, Lymphoma) of 10.7 µM. It also gave an EC50 (ST486, ST486, Lymphoma) of 3.87 µM, a GI50 (ST486, ST486, Lymphoma) of 3.86 µM and an IC50 (ST486, ST486, Lymphoma) of 3.87 µM. It also gave an EC50 (SU-DHL10, SU-DHL-10, Lymphoma) of 9.92 µM, a GI50 (SU-DHL10, SU-DHL-10, Lymphoma) of 9.9 µM and an IC50 (SU-DHL10, SU-DHL-10, Lymphoma) of 9.92 µM. The EC50 (SU-DHL-4, SU-DHL-4, Lymphoma) was 4.2 µM, the GI50 (SU-DHL-4, SU-DHL-4, Lymphoma) was 4.2 µM and the IC50 (SU-DHL-4, SU-DHL-4, Lymphoma) was 4.2 µM. It also gave an EC50 (SU-DHL-5, SU-DHL-5, Lymphoma) of 4.28 µM, a GI50 (SU-DHL-5, SU-DHL-5, Lymphoma) of 4.27 µM and an IC50 (SU-DHL-5, SU-DHL-5, Lymphoma) of 4.28 µM. For the same compound, the EC50 (SU-DHL-8, SU-DHL-8, Lymphoma) was 7.4 µM, the GI50 (SU-DHL-8, SU-DHL-8, Lymphoma) was 7.4 µM and the IC50 (SU-DHL-8, SU-DHL-8, Lymphoma) was 7.4 µM. For the same compound, the EC50 (SU.86.86, SU.86.86, Pancreas) was 13.1 µM, the GI50 (SU.86.86, SU.86.86, Pancreas) was greater than 30 µM and the IC50 (SU.86.86, SU.86.86, Pancreas) was greater than 30 µM. It also gave an EC50 (SUP-T1, SUP-T1, Lymphoma) of 12.1 µM, a GI50 (SUP-T1, SUP-T1, Lymphoma) of 12 µM and an IC50 (SUP-T1, SUP-T1, Lymphoma) of 12.1 µM. For the same compound, the EC50 (SW48, SW48, Colon) was 8.73 µM, the GI50 (SW48, SW48, Colon) was 8.65 µM and the IC50 (SW48, SW48, Colon) was 8.73 µM. The EC50 [9] was 12.3 µM, the GI50 [9] was 12.2 µM and the IC50 [9] was 12.3 µM. The EC50 [10] was greater than 30 µM, the GI50 [10] was greater than 30 µM and the IC50 [10] was greater than 30 µM. The EC50 (SW837, SW837, Colon) was greater than 30 µM and the GI50 (SW837, SW837, Colon) was greater than 30 µM.
